Data taken from patent publication US9687479B2, “Multisubstituted aromatic compounds as serine protease inhibitors” (VERSEON CORPORATION, priority 2013, dated 2017).

Molecular target: Human KLKB1 (Homo sapiens (Human), UniProt P03952)
Experiment: KLKB1 kallikrein activity inhibition assay (chromogenic substrate S-2302)
Type: biochemical
Description: The KLKB1 kallikrein activity reported herein (e.g., Tables B, C, and D) was obtained as follows. Human KLKB1 protein was obtained from Enzyme Research Labs. […] KLKB1 was assayed in buffer containing 0.05 M Tris (pH 7.4), 0.01 M NaCl and 0.2% w/v PEG-8000. The final concentration of enzyme used was 3 nM KLKB1. […] All assays were performed in 96-well microtiter plates at room temperature (RT). […] Inhibitor IC50 values were determined by adding test compound as ten point, three-fold serial dilutions in buffer solution, as known in the art. The plate was read at 10 minutes after substrate addition. The IC50 was calculated by plotting the percent (%) inhibition against compound concentration and fitting the data to a constrained four parameter sigmoidal curve, as known in the art.

[1] = 3 nM KLKB1, 250 μM S-2302, 10 min pre-incubation, RT

Human KLKB1, sequence (P03952 391-638 limits assumed): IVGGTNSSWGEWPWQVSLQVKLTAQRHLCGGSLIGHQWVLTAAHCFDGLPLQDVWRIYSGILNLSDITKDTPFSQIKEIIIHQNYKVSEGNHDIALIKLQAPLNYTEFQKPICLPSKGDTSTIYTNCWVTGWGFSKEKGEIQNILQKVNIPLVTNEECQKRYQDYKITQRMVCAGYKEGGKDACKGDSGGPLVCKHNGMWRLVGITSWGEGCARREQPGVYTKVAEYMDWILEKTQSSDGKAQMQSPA
Human KLKB1, sequence (P03952 20-390 partner limits assumed): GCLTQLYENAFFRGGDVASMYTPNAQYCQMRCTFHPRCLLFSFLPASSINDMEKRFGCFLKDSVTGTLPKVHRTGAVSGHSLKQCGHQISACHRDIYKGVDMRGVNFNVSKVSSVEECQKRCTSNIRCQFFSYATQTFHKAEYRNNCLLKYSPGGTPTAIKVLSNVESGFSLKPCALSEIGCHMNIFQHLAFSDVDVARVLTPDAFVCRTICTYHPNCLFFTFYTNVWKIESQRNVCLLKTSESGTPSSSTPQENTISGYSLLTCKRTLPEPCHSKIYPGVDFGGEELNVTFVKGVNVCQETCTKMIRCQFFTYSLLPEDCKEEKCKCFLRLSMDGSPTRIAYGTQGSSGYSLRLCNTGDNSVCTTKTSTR

Row | IC50 (Table C) [µM] | SMILES | other results
1 | 0.1 to 1 | COc1ccccc1C(=O)n1nc(C2CCN(C(=O)OC(C)(C)C)CC2)nc1NCc1ccc(Cl)s1 [Cmpd 412] | 
2 | 1 to 10 | CC(C)C(=O)n1nc(-c2ccncc2)nc1NCc1ccccc1 [Cmpd 351] | 
3 | 10 to 100 | CC(C)(C)C(=O)n1nc(-c2cccnc2)nc1NCc1ccc(F)cc1 [Cmpd 308] | 
4 | > 100 | O=C(c1cccs1)n1nc(-c2ccncc2)nc1NCc1ccc(F)cc1 [Cmpd 378] | 
5 | 1 to 10 | O=C(c1cccs1)n1nc(-c2ccccn2)nc1NCc1ccc(F)cc1 [Cmpd 10] | 
6 | 10 to 100 | COc1ccc(CNc2nc(-c3ccccn3)nn2C(=O)CC(C)C)cc1 [Cmpd 322] | 
7 |  | Cc1cc(N(C)c2cccc(Cl)c2)nc(N[C@H]2CCc3c(N)cccc3C2)n1 [Cmpd 424, 2-N-[(2S)-5-amino-1,2,3,4-tetrahydronaphthalen-2-yl]-4-N-(3-chlorophenyl)-4-N,6-dimethylpyrimidine-2,4-diamine] | IC50 [1]: > 100 µM
8 | 0.1 to 1 | O=C(c1ccc(Cl)cc1)n1nc(-c2ccccn2)nc1NCc1ccccc1 [Cmpd 399] | 
9 | 10 to 100 | COc1ccc(CNc2nc(-c3ccccn3)nn2C(=O)Cc2ccccc2)cc1 [Cmpd 321] | 
10 | 1 to 10 | COc1ccc(CNc2nc(-c3ccccn3)nn2C(=O)c2ccsc2)cc1 [Cmpd 380] | 
11 |  | Cc1cc(N(C)c2cccc(F)c2)nc(N[C@@H]2CCc3c(N)cccc3C2)n1 [Cmpd 420, 2-N-[(2R)-5-amino-1,2,3,4-tetrahydronaphthalen-2-yl]-4-N-(3-fluorophenyl)-4-N,6-dimethylpyrimidine-2,4-diamine] | IC50 [1]: > 100 µM
12 | 10 to 100 | O=C(CCc1ccccc1)n1nc(-c2cccnc2)nc1NCc1ccc(F)cc1 [Cmpd 313] | 
13 | < 0.1 | COc1ccccc1C(=O)n1nc(C2CN(S(=O)(=O)N(C)C)C2)nc1NCc1ccc(Cl)s1 [Cmpd 364] | 
14 |  | O=C(c1ccoc1)n1nc(-c2cccs2)cc1NCc1ccc(Cl)s1 [Cmpd 289] | IC50 (Table B): > 100 µM
15 | 0.1 to 1 | COc1ccccc1C(=O)n1nc(-c2cccnc2)nc1SCc1ccc(F)cc1 [Cmpd 14] | 
16 | 10 to 100 | CC(C)C(=O)n1nc(-c2ccccn2)nc1NCc1ccc(F)cc1 [Cmpd 302] | 
17 | 1 to 10 | COc1ccccc1C(=O)n1nc(-c2ccco2)nc1NCc1ccccc1 [Cmpd 403] | 
18 | 1 to 10 | O=C(c1ccco1)n1nc(-c2cccnc2)nc1NCc1ccc(F)cc1 [Cmpd 370] | 
19 | > 100 | CC(C)(C)C(=O)n1nc(-c2cccs2)nc1NCc1ccccc1 [Cmpd 357] | 
20 |  | O=C(c1ccoc1)n1nc(-c2ccccc2)c(F)c1NCc1ccc(Cl)s1 [Cmpd 295] | IC50 (Table B): > 100 µM
21 | 10 to 100 | CCCC(=O)n1nc(-c2ccccn2)nc1NCc1ccc(F)cc1 [Cmpd 306] | 
22 |  | CC(C)(C)C(=O)n1nc(-c2ncccc2F)cc1NCc1ccc(Cl)s1 [Cmpd 269] | IC50 (Table B): > 100 µM

Row | IC50 (Table C) [µM] | SMILES | other results
23 | > 100 | Fc1ccc(CNc2nc(-c3ccccn3)nn2-c2nc3ccccc3s2)cc1 [Cmpd 299] | 
24 | 1 to 10 | COc1ccccc1C(=O)n1nc(-c2ccccn2)nc1NCc1ccccc1 [Cmpd 397] | 
25 |  | CC(C)(C)C(=O)n1nc(-c2ccccn2)c(F)c1NCc1ccccc1 [Cmpd 279] | IC50 (Table B): > 100 µM
26 | 10 to 100 | CCCC(=O)n1nc(-c2ccccn2)nc1NCc1ccc(OC)cc1 [Cmpd 324] | 
27 | 1 to 10 | O=C(c1ccco1)n1nc(-c2ccccn2)nc1NCc1ccccc1 [Cmpd 8] | 
28 |  | CC(C)(CO)C(=O)n1nc(C2CCOCC2)c(F)c1NCc1ccc(Cl)s1 [Cmpd 273] | IC50 (Table B): 10 to 100 µM
29 |  | CC(C)(CO)C(=O)n1nc(-c2ccccc2)c(F)c1NCc1ccc(Cl)s1 [Cmpd 275] | IC50 (Table B): > 100 µM
30 | 0.1 to 1 | O=C(c1ccccc1)n1nc(-c2cccnc2)nc1NCc1ccc(F)cc1 [Cmpd 359] | 
31 |  | O=C(c1ccoc1)n1nc(-c2ccccn2)cc1NCc1ccc(Cl)s1 [Cmpd 288] | IC50 (Table B): 10 to 100 µM
32 | 10 to 100 | O=C(c1ccoc1)n1nc(-c2ccncc2)nc1NCc1ccccc1 [Cmpd 402] | 
33 | 1 to 10 | CC(C)(C)C(=O)n1nc(C2CCCO2)nc1NCc1ccc(Cl)s1 (centres unmarked) [Cmpd 331] | 
34 |  | O=C(NCc1ccc2[nH]cc(Cl)c2c1)[C@H]1CC(=O)N(Cc2ccccc2)C1 [Cmpd 415, (3S)-1-benzyl-N-[(3-chloro-1H-indol-5-yl)methyl]-5-oxopyrrolidine-3-carboxamide] | IC50 [1]: > 100 µM
35 | < 0.1 | COc1ccccc1C(=O)n1nc(C2CN(S(=O)(=O)N3CCCC3)C2)nc1NCc1ccc(Cl)s1 [Cmpd 388] | 
36 | 0.1 to 1 | COc1ccccc1C(=O)n1nc(C2CN(C(=O)OC(C)(C)C)C2)nc1NCc1ccc(Cl)s1 [Cmpd 411] | 
37 | 0.1 to 1 | O=C(c1ccsc1)n1nc(-c2ccccn2)nc1NCc1ccc(F)cc1 [Cmpd 375] | 
38 |  | Cc1cc(N(C)c2ccc(F)cc2)nc(N[C@@H]2CCc3c(N)cccc3C2)n1 [Cmpd 421, 2-N-[(2R)-5-amino-1,2,3,4-tetrahydronaphthalen-2-yl]-4-N-(4-fluorophenyl)-4-N,6-dimethylpyrimidine-2,4-diamine] | IC50 [1]: > 100 µM
39 | 10 to 100 | CCCC(=O)n1nc(-c2ccccn2)nc1NCc1ccccc1 [Cmpd 347] | 
40 |  | Cn1cc(Cl)c2cc(CNC(=O)[C@H]3CC(=O)N(Cc4ccc(Cl)cc4)C3)ccc21 [Cmpd 416, (3S)-N-[(3-chloro-1-methyl-1H-indol-5-yl)methyl]-1-[(4-chlorophenyl)methyl]-5-oxopyrrolidine-3-carboxamide] | IC50 [1]: 10 to 100 µM
41 | 10 to 100 | CC(C)CC(=O)n1nc(-c2cccnc2)nc1NCc1ccc(F)cc1 [Cmpd 312] | 
42 |  | CCC(=O)n1nc(-c2ccccc2)cc1NCc1ccc(F)cc1 [Cmpd 268] | IC50 (Table B): > 100 µM
43 | 10 to 100 | CCC(=O)n1nc(-c2cccnc2)nc1NCc1ccc(F)cc1 [Cmpd 7] | 
44 | 0.1 to 1 | O=C(c1ccoc1)n1nc(C2CCCO2)nc1NCc1ccc(Cl)s1 (centres unmarked) [Cmpd 392] | 

Row | IC50 (Table C) [µM] | SMILES | other results
45 |  | COc1ccccc1C(=O)n1nc(-c2ccccn2)cc1NCc1cccs1 [Cmpd 278] | IC50 (Table B): > 100 µM
46 |  | COc1ccccc1C(=O)n1nc(-c2ccccc2)c(F)c1NCc1ccccc1 [Cmpd 296] | IC50 (Table B): > 100 µM
47 |  | Cc1cc(N(C)c2ccc(Cl)cc2)nc(N[C@H]2CCc3c(N)cccc3C2)n1 [Cmpd 425, 2-N-[(2S)-5-amino-1,2,3,4-tetrahydronaphthalen-2-yl]-4-N-(4-chlorophenyl)-4-N,6-dimethylpyrimidine-2,4-diamine] | IC50 [1]: > 100 µM
48 | 10 to 100 | CC(C)C(=O)n1nc(-c2ccccn2)nc1NCc1ccccc1 [Cmpd 345] | 
49 | 10 to 100 | CC(C)C(=O)n1nc(-c2ccncc2)nc1NCc1ccc(F)cc1 [Cmpd 315] | 
50 | 0.1 to 1 | O=C(c1ccccc1Cl)n1nc(-c2cccs2)nc1NCc1ccccc1 [Cmpd 396] | 
51 | 1 to 10 | COc1ccccc1C(=O)n1nc(-c2cccnc2)nc1NCc1ccc(F)cc1 [Cmpd 368] | 
52 | 10 to 100 | CCC(=O)n1nc(-c2ccccn2)nc1NCc1ccccc1 [Cmpd 348] | 
53 | 10 to 100 | CC(C)(C)C(=O)n1nc(-c2ccccn2)nc1NCc1ccc(F)cc1 [Cmpd 301] | 
54 | 1 to 10 | O=C(c1ccco1)n1nc(-c2ccncc2)nc1NCc1ccccc1 [Cmpd 400] | 
55 | 10 to 100 | COc1ccc(CNc2nc(-c3cccnc3)nn2C(=O)Cc2ccccc2)cc1 [Cmpd 327] | 
56 | 0.1 to 1 | COc1ccccc1C(=O)n1nc(-c2ccncn2)nc1NCc1ccccc1 [Cmpd 16] | 
57 | 1 to 10 | COc1ccccc1C(=O)n1nc(-c2cccs2)nc1NCc1ccccc1 [Cmpd 398] | 
58 | 0.1 to 1 | COc1ccccc1C(=O)n1nc(C2CCN(C(=O)C(C)(C)C)CC2)nc1NCc1ccc(Cl)s1 [Cmpd 341] | 
59 | 10 to 100 | CC(C)CC(=O)n1nc(-c2ccccn2)nc1NCc1ccccc1 [Cmpd 346] | 
60 | 10 to 100 | CC(C)C(=O)n1nc(-c2cccnc2)nc1NCc1ccc(F)cc1 [Cmpd 310] | 
61 |  | O=C(NCc1ccc2[nH]cc(Cl)c2c1)[C@H]1CC(=O)N(Cc2ccccc2Cl)C1 [Cmpd 417, (3S)-N-[(3-chloro-1H-indol-5-yl)methyl]-1-[(2-chlorophenyl)methyl]-5-oxopyrrolidine-3-carboxamide] | IC50 [1]: 10 to 100 µM
62 | 1 to 10 | COc1ccc(CNc2nc(-c3ccccn3)nn2C(=O)c2ccco2)cc1 [Cmpd 336] | 
63 | 1 to 10 | O=C(Cc1ccccc1)n1nc(-c2cccnc2)nc1NCc1ccc(F)cc1 [Cmpd 311] | 
64 | 10 to 100 | COc1ccccc1C(=O)n1nc(-c2ccccc2)nc1NCc1ccsc1 [Cmpd 335] | 
65 |  | O=C(c1ccoc1)n1nc(-c2ncccc2F)cc1NCc1ccc(Cl)s1 [Cmpd 291] | IC50 (Table B): > 100 µM

Row | SMILES | IC50 (Table C) [µM] | other results
66 | CC(C)(C)C(=O)n1nc(-c2ccco2)nc1NCc1ccccc1 [Cmpd 342] | > 100 | 
67 | COc1ccc(CNc2nc(-c3ccccn3)nn2C(=O)C(C)C)cc1 [Cmpd 320] | > 100 | 
68 | CCCC(=O)n1nc(-c2ccncc2)nc1NCc1ccc(F)cc1 [Cmpd 317] | > 100 | 
69 | CC(C)CC(=O)n1nc(-c2ccncc2)nc1NCc1ccccc1 [Cmpd 353] | > 100 | 
70 | CC(C)(C)C(=O)n1nc(-c2ccncc2)nc1NCc1ccccc1 [Cmpd 350] | > 100 | 
71 | CCCC(=O)n1nc(-c2ccncc2)nc1NCc1ccccc1 [Cmpd 355] | > 100 | 
72 | COCC(=O)n1nc(-c2cccnc2)nc1NCc1ccc(F)cc1 [Cmpd 309] | > 100 | 
73 | CCC(=O)n1nc(-c2ccncc2)nc1NCc1ccccc1 [Cmpd 356] | > 100 | 
74 | COc1ccc(CNc2nc(-c3cccnc3)nn2C(=O)CC(C)C)cc1 [Cmpd 328] | > 100 | 
75 | O=C(CCc1ccccc1)n1nc(-c2ccncc2)nc1NCc1ccccc1 [Cmpd 354] | > 100 | 
76 | CCC(=O)n1nc(-c2ccncc2)nc1NCc1ccc(F)cc1 [Cmpd 318] | > 100 | 
77 | COc1ccc(CNc2nc(-c3cccnc3)nn2C(=O)C(C)(C)C)cc1 [Cmpd 326] | > 100 | 
78 | COc1ccc(CNc2nc(-c3cccnc3)nn2C(=O)c2ccoc2)cc1 [Cmpd 339] | > 100 | 
79 | O=C(c1ccoc1)n1nc(-c2ccncc2)nc1NCc1ccc(F)cc1 [Cmpd 373] | > 100 | 
80 | COc1ccc(CNc2nc(-c3ccncc3)nn2C(=O)c2ccco2)cc1 [Cmpd 337] | > 100 | 
